Source: patent publication US10543183B2, “Treatment and diagnosis of melanoma” (The Rockefeller University, priority 2012, dated 2020)
Where a name gives a salt, the structure may show the parent alone.

Tests used:
[1] = system: human melanoma cells (MeWo, MeWo-LM2, HT-144, SK-Mel-2, SK-Mel-334.2); assay: trans-well matrigel cell invasion assay, melanoma cells; format: cell-based; details: for ability of melanoma cells to invade through matrigel: MeWo, HT-144, SK-Mel-2, SK-Mel-334.2, 1 μM for 72 hours
Procedure: Cancer cells were serum-starved in 0.2% FBS DMEM-based media for 12 hours. Trans-well invasion chambers (354480, BD Biosciences, Bedford, Mass.) were pre-equilibrated prior to beginning the assay by adding 0.5 mL of starvation media to the top and bottom chambers. After 30 minutes, the media in the top chamber was removed, and 0.5 mL of media containing 1×10^5 cancer cells was added into each matrigel-coated trans-well insert and incubated at 37° C. for 24 hours. For neutralization antibody and/or recombinant protein experiments, antibody/recombinant protein was added to each well at the start of the assay at the following concentrations as indicated in the figures: 5-40 μg/mL anti-ApoE 1D7 (Heart Institute, University of Ottawa), 5-40 μg/mL anti-IgG (AB-108-C, R&D Systems, Minneapolis, Minn.), 100 μM recombinant human ApoE3 (4696, BioVision, Mountain View, Calif.), and 100 μM BSA (A2153, Sigma-Aldrich). Upon completion of the assay, matrigel-coated inserts were washed with PBS, the cells at the top side of each insert were scraped off, and the inserts were fixed in 4% paraformaldehyde for 15 minutes. The inserts were then cut out and mounted onto slides using VectaShield mounting medium containing DAPI (H-1000, Vector Laboratories, Burlingame, Calif.). The basal side of each insert was imaged using an inverted fluorescence microscope (Zeiss Axiovert 40 CFL) at 5× magnification, taking three representative images for each insert. The number of invaded cells was quantified using ImageJ (NIH).
The cell invasion assay was performed as previously described in detail (Pencheva et al., 2012) using a trans-well matrigel invasion chamber system (354480, BD Biosciences). In brief, various melanoma cells were cultured in the presence of DMSO, GW3965, T0901317, or Bexarotene at 1 μM for 56 hours, after which melanoma cells were switched to starvation media (0.2% FBS) for 16 hours in the presence of each drug. Following starvation, cells were seeded into matrigel-coated trans-well inserts, and the invasion assay was allowed to proceed for 24 hours at 37° C. For ApoE antibody neutralization experiments, 40 μg/mL 1D7 anti-ApoE blocking antibody (Heart Institute, University of Ottawa, Ottawa, Canada) or 40 μg/mL anti-IgG control antibody (AB-108-C, R&D Systems, Minneapolis, Minn.) was added to each trans-well insert at the start of the assay.
The cells were then serum starved for 16 hours in 0.2% FBS media in the presence of each corresponding drug or DMSO. Following serum starvation, the cells were subjected to the trans-well invasion assay using a matrigel invasion chamber system (354480, BD Biosciences). Invasion chambers were pre-equilibrated prior to the assay by adding 0.5 mL of starvation media to the top and bottom wells. Meanwhile, cancer cells were trypsinized and viable cells were counted using trypan blue. Cancer cells were then resuspended at a concentration of 2×10^5 cells/1 mL starvation media, and 0.5 mL of cell suspension, containing 1×10^5 cells, was seeded into each trans-well. The invasion assay was allowed to proceed for 24 hours at 37° C. […] Following fixation, the inserts were washed in PBS, cut out, and mounted onto slides using VectaShield mounting medium containing DAPI nuclear stain (H-1000, Vector Laboratories). The basal side of each insert was imaged using an inverted fluorescence microscope (Zeiss Axiovert 40 CFL) at 5× magnification, and the number of DAPI-positive cells was quantified using ImageJ.

[2] = system: ApoE expression in human melanoma cells; assay: ApoE mRNA expression by qRT-PCR in melanoma cells; format: cell-based
Procedure: Total RNA was extracted from various cell lines using the miRvana kit (AM1560, Applied Biosystems, Austin, Tex.). The expression levels of mature miRNAs were quantified using the Taqman miRNA expression assay (4427975-0002228, Applied Biosystems). RNU44 was used as an endogenous control for normalization. For mRNA expression analyses, 600 ng of total RNA was reverse transcribed using the cDNA First-Strand Synthesis Kit (18080-051, Invitrogen), and roughly 200 ng of the resulting cDNA was then mixed with SYBR green PCR Master Mix (4309155, Applied Biosystems) and the appropriate primers. Each reaction was performed in quadruplicate, and mRNA expression was quantified by performing real-time PCR amplification using an ABI Prism 7900HT Real-Time PCR System (Applied Biosystems). GAPDH was used as an endogenous control for normalization. The following primers were used: […]
RNA was extracted from whole cell lysates using the Total RNA Purification Kit (17200, Norgen, Thorold, Canada). 600 ng of total RNA was then reverse transcribed into cDNA using the cDNA First-Strand Synthesis Kit (18080-051, Invitrogen), and quantitative real-time PCR amplification was performed as previously described (Pencheva et al., 2012) using an ABI Prism 7900HT Real-Time PCR System (Applied Biosystems, Austin, Tex.). Each PCR reaction was carried out in quadruplicates. Gene expression was normalized to GAPDH, which was used as an endogenous control.
For every sample, 600 ng of RNA was reverse transcribed into cDNA using the cDNA First-Strand Synthesis kit (Invitrogen). Approximately 200 ng of cDNA was mixed with SYBR® green PCR Master Mix and the corresponding forward and reverse primers specific for detection of human ApoE. Each reaction was carried out in quadruplicates, and ApoE mRNA expression levels were measured by quantitative real-time PCR amplification using an ABI Prism 7900HT Real-Time PCR System (Applied Biosystems). The relative ApoE expression was determined using the ΔΔCt method. GAPDH was used as an endogenous control for normalization purposes.

[3] = system: ApoE expression in systemic tissues; assay: systemic ApoE expression in mouse tissues (western blot, qRT-PCR); format: in vivo; details: 10 days; for ApoE protein expression in systemic adipose, lung, and brain tissues: chow 20 mg/kg; for ApoE transcript levels in circulating white blood cells: diet 20 mg/kg
Procedure: Mouse lung and brain tissue samples were homogenized on ice in RIPA buffer (Sigma-Aldrich) supplemented with protease inhibitors (Roche). Mouse adipose tissue was homogenized on ice in TNET buffer (1.5 mM Tris pH 7.5, 150 mM NaCl, 2 mM EDTA 1% triton, protease inhibitors). Total protein lysate (2 μg) was separated by SDS-PAGE, transferred to PVDF membrane, and blotted with an anti-mouse ApoE (ab20874, Abcam) and anti-tubulin α/β (2148, Cell Signaling) antibodies. RNA was extracted from whole cell lysates using the Total RNA Purification Kit (17200, Norgen, Thorold, Canada). 600 ng of total RNA was then reverse transcribed into cDNA using the cDNA First-Strand Synthesis Kit (18080-051, Invitrogen), and quantitative real-time PCR amplification was performed as previously described (Pencheva et al., 2012) using an ABI Prism 7900HT Real-Time PCR System (Applied Biosystems, Austin, Tex.). Each PCR reaction was carried out in quadruplicates. Gene expression was normalized to GAPDH, which was used as an endogenous control.

Row | Compound | invasion by metastatic LM2 cells ([1]; 100 μM added to cell media) | ability of melanoma cells to invade through matrigel [1] | potency of ApoE expression induction in vitro [2] | ApoE protein expression in systemic adipose, lung, and brain tissues [3] | ApoE transcript levels in circulating white blood cells [3] | tumor cell invasion ([1]; parental MeWo cells pre-treated for 48 hours) | expression of ApoE ([2]; parental MeWo cells, 48 hours)
1 | recombinant ApoE3: recombinant human ApoE3 (4696, BioVision) | significantly suppressed |  |  |  |  |  | 
2 | O=S(=O)(c1ccccc1)N(CC(F)(F)F)c1ccc(C(O)(C(F)(F)F)C(F)(F)F)cc1 [T0901317 1] |  | consistently suppressed | potently induce | significantly elevated | upregulated |  | 
3 | O=C(O)Cc1cccc(OCCCN(Cc2cccc(C(F)(F)F)c2Cl)CC(c2ccccc2)c2ccccc2)c1 [GW3965 2, 3-[3-[N-(2-Chloro-3-trifluoromethylbenzyl)-(2,2-diphenylethyl)amino]propyloxy] phenylacetic acid hydrochloride] |  | consistently suppressed | potently induce | significantly elevated | upregulated | decreased | increased expression
